In ChEMBL document CHEMBL3351857, “Synthesis and biological evaluation of 2,3'-diindolylmethanes as agonists of aryl hydrocarbon receptor” (Bioorg Med Chem Lett, 2014) one finds fold induction, EC50 and t1/2 data, which are given here for four molecules.

For data set [1], the target named is T1, Aryl hydrocarbon receptor (AhR) (Homo sapiens, UniProt P35869).
T1 sequence (P35869 whole entry): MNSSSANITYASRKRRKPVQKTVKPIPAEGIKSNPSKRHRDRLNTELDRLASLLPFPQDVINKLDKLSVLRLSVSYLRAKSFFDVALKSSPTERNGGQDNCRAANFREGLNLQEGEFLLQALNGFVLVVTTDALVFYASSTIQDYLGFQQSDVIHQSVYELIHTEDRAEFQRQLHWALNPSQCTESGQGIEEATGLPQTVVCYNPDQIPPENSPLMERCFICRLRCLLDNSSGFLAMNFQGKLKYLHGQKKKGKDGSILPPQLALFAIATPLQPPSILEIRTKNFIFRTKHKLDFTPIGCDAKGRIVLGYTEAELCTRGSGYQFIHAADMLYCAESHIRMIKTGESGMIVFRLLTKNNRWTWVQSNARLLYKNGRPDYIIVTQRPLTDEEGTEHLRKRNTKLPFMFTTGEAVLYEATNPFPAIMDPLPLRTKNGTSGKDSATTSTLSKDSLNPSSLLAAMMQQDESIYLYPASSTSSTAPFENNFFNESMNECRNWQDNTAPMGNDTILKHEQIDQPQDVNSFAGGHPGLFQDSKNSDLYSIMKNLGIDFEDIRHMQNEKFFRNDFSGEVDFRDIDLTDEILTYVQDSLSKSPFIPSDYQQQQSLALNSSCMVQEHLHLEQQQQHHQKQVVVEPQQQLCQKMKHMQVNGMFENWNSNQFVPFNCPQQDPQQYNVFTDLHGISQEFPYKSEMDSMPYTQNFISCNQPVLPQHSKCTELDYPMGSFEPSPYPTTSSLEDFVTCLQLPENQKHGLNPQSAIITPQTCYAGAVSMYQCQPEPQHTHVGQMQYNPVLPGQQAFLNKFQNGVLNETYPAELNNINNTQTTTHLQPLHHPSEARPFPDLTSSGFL
The data set can be described thus: Activation of AhR in human HepG2 cells assessed as fluorescence after 24 hrs incubation at 10 nM by EROD assay relative to control. Format: cell-based. As to conditions: read-out: FC.

Data set [2] deals with T2, Aryl hydrocarbon receptor (Homo sapiens, UniProt P35869).
T2 sequence (P35869 whole entry): T1 sequence (P35869 whole entry)
The data set can be described thus: Activation of AhR in human HepG2 cells assessed as fluorescence after 24 hrs incubation by EROD assay. Format: cell-based.

For the next data set, the species on record is Homo sapiens. The data set can be described thus: Half life in human. The format is ADME, organism-based. As to conditions: in vivo.

As usually defined, the EC50 is the concentration needed to bring the measured effect to its halfway point.

In the case of `O=Cc1c(Cc2c[nH]c3ccc(Cl)cc23)[nH]c2ccccc12`, the fold induction at 24 h, 0.01 µM in data set [1] was determined as 5.

As to `Cn1cc(Cc2[nH]c3ccccc3c2C=O)c2ccccc21`, the fold induction at 24 h, 0.01 µM in data set [1] was determined as 6.

Regarding `Clc1ccc2[nH]cc(Cc3cc4ccccc4[nH]3)c2c1`, in data set [2], the EC50 was more than 6.7 µM.

In turn, `Clc1cc2c(cc1Cl)Oc1cc(Cl)c(Cl)cc1O2` [2,3,7,8-TETRACHLORODIBENZO-P-DIOXIN] showed a t1/2 in the data set filed under Homo sapiens of 7 yr.
